Reference: PMC5659721 (Journal of medicinal chemistry, 2017)

Experiments:
[1] = molecular target: T1, wild-type TTR (Homo sapiens, UniProt P02766); details: orientation in T4-binding site; cited from earlier work
[2] = molecular target: TTR (Homo sapiens, UniProt P02766); assay: Reversibility of binding assessed with mass spectrometry; details: mass spectrometry (Figure S3)
[3] = molecular target: T1, wild-type TTR; assay: Competitive fluorescence; type: binding; details: 5 vs 1, 6 vs 2
[4] = molecular target: T1, wild-type TTR; assay: Co-crystallography / X-ray diffraction analysis of TTR·ligand complexes; details: co-crystal structures

SMILES | covalent interaction / boronic ester formation with binding-pocket residues [4] | also measured
O=C(O)c1ccc2nc(-c3cc(Cl)cc(Cl)c3)oc2c1 [Compound 12, 2-(3,5-dichlorophenyl)-6-benzoxazolecarboxylic acid] | – | binding mode [1]: forward ^d
OB(O)c1ccc(/C=C/c2ccc(B(O)O)cc2Cl)c(Cl)c1 [Compound 10, 1,1′-(1E)-(1,2-Ethenediyl)bis[2-chloro-4-boronic acid]-benzene] | – | reversibility of binding with TTR [2]: reversible
O=C(O)c1cccc(/C=C/c2ccc(O)cc2)c1 [Compound 5, 3-[(1E)-2-(4-Hydroxyphenyl)ethenyl]-benzoic Acid] | – | Kd,2 fold higher than those of stilbenes 1 and 2, respectively [3]: 3 fold
O=C(O)c1cccc(/C=C/c2ccc(B(O)O)cc2)c1 [Compound 6, 3-[(1E)-2-(4-Boronic acid)ethenyl]-benzoic Acid] | did not exhibit covalent interactions | Kd,2 fold higher than those of stilbenes 1 and 2, respectively [3]: 2 fold
OB(O)c1ccc(/C=C/c2cc(O)cc(O)c2)cc1 [Compound 2, 5-[(1E)-2-(4-Boronic acid)ethenyl]-1,3-benzenediol] | did not exhibit covalent interactions | –
OB(O)c1ccc(/C=C/c2cc(O)cc(O)c2)c(Cl)c1 [Compound 4, 5-[(1E)-2-(2-Chloro-4-boronic Acid)ethenyl]-1,3-benzenediol] | did not exhibit covalent interactions | –
O=C(O)c1cccc(/C=C/c2ccc(B(O)O)cc2Cl)c1 [Compound 8, 3-[(1E)-2-(2-Chloro-4-boronic Acid)ethenyl]-benzoic] | did not exhibit covalent interactions | –
